In ChEMBL document CHEMBL4725331, “An investigative study of antitumor properties of a novel thiazolo[4,5-d]pyrimidine small molecule revealing superior antitumor activity with CDK1 selectivity and potent pro-apoptotic properties” (Bioorg Med Chem, 2020):

Key:
[1] = test system: BT-549; experiment: Antiproliferative activity against human BT-549 cells assessed as inhibition of cell growth measured after 48 hrs by SRB assay; type: functional
[2] = test system: OVCAR-8; experiment: Antiproliferative activity against human OVCAR-8 cells assessed as inhibition of cell growth at 10 uM measured after 48 hrs by SRB assay relative to control; type: functional
[3] = test system: PC-3; experiment: Antiproliferative activity against human PC-3 cells assessed as inhibition of cell growth measured after 48 hrs by SRB assay; type: functional
[4] = test system: SW-620; experiment: Antiproliferative activity against human SW-620 cells assessed as inhibition of cell growth measured after 48 hrs by SRB assay; type: functional
[5] = test system: IGROV-1; experiment: Antiproliferative activity against human IGROV-1 cells assessed as inhibition of cell growth measured after 48 hrs by SRB assay; type: functional
[6] = test system: ACHN; experiment: Antiproliferative activity against human ACHN cells assessed as inhibition of cell growth measured after 48 hrs by SRB assay; type: functional
[7] = test system: WI-38; experiment: Induction of apoptosis in human WI-38 cells assessed as early apoptotic cells at IC50 incubated for 48 hrs by annexin-V FITC and propidium iodide staining based flow cytometry analysis (reference value: 0.39 %); type: cell-based; conditions: wi-38, 48 h
[8] = test system: SK-MEL-5; experiment: Antiproliferative activity against human SK-MEL-5 cells assessed as inhibition of cell growth at 10 uM measured after 48 hrs by SRB assay relative to control; type: functional
[9] = test system: OVCAR-3; experiment: Antiproliferative activity against human OVCAR-3 cells assessed as inhibition of cell growth measured after 48 hrs by SRB assay; type: functional
[10] = test system: ACHN; experiment: Antiproliferative activity against human ACHN cells assessed as inhibition of cell growth at 10 uM measured after 48 hrs by SRB assay relative to control; type: functional
[11] = test system: WI-38; experiment: Cell cycle arrest in human WI-38 cells assessed as accumulation in S phase phase at IC50 concentration incubated for 48 hrs by propidium iodide staining based flow cytometry analysis (reference value: 33.8 %); conditions: wi-38, 48 h
[12] = test system: HCT-116; experiment: Induction of apoptosis in human HCT116 cells assessed as up regulation of cytochrome C expression by RT-PCR analysis relative to untreated control; type: functional
[13] = test system: HCT-116; experiment: Cell cycle arrest in human HCT-116 cells assessed as accumulation in S phase phase at IC50 concentration incubated for 48 hrs by propidium iodide staining based flow cytometry analysis (reference value: 41.34 %); type: functional
[14] = test system: HOP-92; experiment: Antiproliferative activity against human HOP-92 cells assessed as inhibition of cell growth at 10 uM measured after 48 hrs by SRB assay relative to control; type: functional
[15] = test system: HCT-116; experiment: Cell cycle arrest in human HCT-116 cells assessed as accumulation in G2/M phase phase at IC50 concentration incubated for 48 hrs by propidium iodide staining based flow cytometry analysis (reference value: 13.75 %); type: functional
[16] = test system: HCT-116; experiment: Induction of apoptosis in human HCT116 cells assessed as up regulation of caspase-9 expression by RT-PCR analysis relative to untreated control; type: functional
[17] = test system: K562; experiment: Antiproliferative activity against human K562 cells assessed as inhibition of cell growth measured after 48 hrs by SRB assay; type: functional
[18] = test system: SK-OV-3; experiment: Antiproliferative activity against human SK-OV-3 cells assessed as inhibition of cell growth measured after 48 hrs by SRB assay; type: functional
[19] = test system: UACC-62; experiment: Antiproliferative activity against human UACC-62 cells assessed as inhibition of cell growth measured after 48 hrs by SRB assay; type: functional
[20] = test system: NCI-H522; experiment: Antiproliferative activity against human NCI-H522 cells assessed as inhibition of cell growth at 10 uM measured after 48 hrs by SRB assay relative to control; type: functional
[21] = test system: RXF 393; experiment: Antiproliferative activity against human RXF 393 cells assessed as inhibition of cell growth at 10 uM measured after 48 hrs by SRB assay relative to control; type: functional
[22] = test system: RPMI-8226; experiment: Antiproliferative activity against human RPMI-8226 cells assessed as inhibition of cell growth measured after 48 hrs by SRB assay; type: functional
[23] = test system: WI-38; experiment: Cell cycle arrest in human WI-38 cells assessed as accumulation in G0/G1 phase at IC50 concentration incubated for 48 hrs by propidium iodide staining based flow cytometry analysis (reference value: 57.68 %); conditions: wi-38, 48 h
[24] = test system: HCT-15; experiment: Antiproliferative activity against human HCT-15 cells assessed as inhibition of cell growth at 10 uM measured after 48 hrs by SRB assay relative to control; type: functional
[25] = test system: COLO 205; experiment: Antiproliferative activity against human COLO 205 cells assessed as inhibition of cell growth measured after 48 hrs by SRB assay; type: functional
[26] = test system: LOX IMVI; experiment: Antiproliferative activity against human LOX IMVI cells assessed as inhibition of cell growth measured after 48 hrs by SRB assay; type: functional
[27] = test system: NCI-H23; experiment: Antiproliferative activity against human NCI-H23 cells assessed as inhibition of cell growth measured after 48 hrs by SRB assay; type: functional
[28] = test system: NCI/ADR-RES; experiment: Antiproliferative activity against human NCI/ADR-RES cells assessed as inhibition of cell growth at 10 uM measured after 48 hrs by SRB assay relative to control; type: functional
[29] = test system: WI-38; experiment: Induction of apoptosis in human WI-38 cells assessed as necrotic cells at IC50 incubated for 48 hrs by annexin-V FITC and propidium iodide staining based flow cytometry analysis (reference value: 0.39 %); type: cell-based; conditions: wi-38, 48 h
[30] = test system: SNB-19; experiment: Antiproliferative activity against human SNB-19 cells assessed as inhibition of cell growth measured after 48 hrs by SRB assay; type: functional
[31] = test system: HCT-116; experiment: Cytotoxicity against human HCT-116 cells assessed as reduction in cell viability after 48 hrs by MTT assay; type: functional, cell-based; conditions: HCT-116, 48 h
[32] = test system: SNB-19; experiment: Antiproliferative activity against human SNB-19 cells assessed as inhibition of cell growth at 10 uM measured after 48 hrs by SRB assay relative to control; type: functional
[33] = test system: SK-OV-3; experiment: Antiproliferative activity against human SK-OV-3 cells assessed as inhibition of cell growth at 10 uM measured after 48 hrs by SRB assay relative to control; type: functional
[34] = test system: KM12; experiment: Antiproliferative activity against human KM12 cells assessed as inhibition of cell growth measured after 48 hrs by SRB assay; type: functional
[35] = read-out: LC50 (the source's name)

`COc1ccc(-n2c(=S)sc3c(Cl)nc(C)nc32)c(OC)c1` showed a GI50 [1] of 2000 nM, a TGI [1] of 4.27 µM and a CC50 [1, 35] of 9.12 µM. For the same molecule, the inhibition at 10 µM [2] was over 50%, the GI50 [3] was 2400 nM and the TGI [3] was 5.89 µM. It also gave a CC50 [3, 35] of 22.9 µM, a GI50 [4] of 2570 nM and a TGI [4] of 5.5 µM. It also gave a CC50 [4, 35] of 28.8 µM, a GI50 [5] of 1950 nM and a TGI [5] of 3.98 µM. For the same molecule, the CC50 [5, 35] was 8.32 µM, the GI50 [6] was 2090 nM and the TGI [6] was 3.98 µM. It also gave a CC50 [6, 35] of 7.59 µM, an Activity [7] of 3.59% and an inhibition at 10 µM [8] of over 50%. It also gave a GI50 [9] of 1780 nM, a TGI [9] of 3.24 µM and a CC50 [9, 35] of 5.89 µM. The inhibition at 10 µM [10] was over 50%, the Activity [11] was 26.39% and the “fold change (FC)” value [12] was 8.02. For the same molecule, the Activity [13] was 30.1%, the inhibition at 10 µM [14] was over 50% and the Activity [15] was 29.82%. For the same molecule, the “fold change (FC)” value [16] was 15.9, the GI50 [17] was 1200 nM and the TGI [17] was 3.8 µM. For the same molecule, the CC50 [17, 35] was over 100 µM, the GI50 [18] was 14.1 µM and the TGI [18] was 27.5 µM. For the same molecule, the CC50 [18, 35] was 52.5 µM, the GI50 [19] was 2040 nM and the TGI [19] was 4.68 µM. The CC50 [19, 35] was 12 µM, the inhibition at 10 µM [20] was over 50% and the inhibition at 10 µM [21] was over 50%. It also gave a GI50 [22] of 3.47 µM, a TGI [22] of 14.1 µM and a CC50 [22, 35] of over 100 µM. For the same molecule, the Activity [23] was 54.45%, the inhibition at 10 µM [24] was over 50% and the GI50 [25] was 3.8 µM. For the same molecule, the TGI [25] was 13.2 µM, the CC50 [25, 35] was 47.9 µM and the GI50 [26] was 1700 nM. For the same molecule, the TGI [26] was 3.16 µM, the CC50 [26, 35] was 6.03 µM and the GI50 [27] was 2450 nM. It also gave a TGI [27] of 5.89 µM, a CC50 [27, 35] of 57.5 µM and an inhibition at 10 µM [28] of over 50%. It also gave an Activity [29] of 1.41%, a GI50 [30] of 2400 nM and a TGI [30] of 5.37 µM. For the same molecule, the CC50 [30, 35] was 17 µM, the IC50 [31] was 5.34 µM and the inhibition at 10 µM [32] was over 50%. The inhibition at 10 µM [33] was over 50%, the GI50 [34] was 3.31 µM and the TGI [34] was 11.5 µM. For the same molecule, the CC50 [34, 35] was 37.1 µM.
